# Data from paper PMC11995724, “Antibiotic target discovery by integrated phenotypic and activity-based profiling of electrophilic fragments” (Cell chemical biology, 2025).
# Where a name gives a salt, the structure may show the parent alone.
# Assay: in vitro
# Conditions: human, hek293t cells
row,Compound,"viability at 48 h, 25 µM [%]"
1,"C=CC(=O)NC1CC(C2CCCCC2)C1 (centres unmarked) [1-D10, N-(3-cyclohexylcyclobutyl)prop-2-enamide]",75.7
2,"CC(C)(C)N(Cc1ccccc1)C(=O)CCl [5-H20, N-benzyl-N-tert-butyl-2-chloroacetamide]",1.81
3,"CC(Cl)C(=O)NC1CCc2ccccc2-n2ccnc21 (centres unmarked) [7-E06, 2-chloro-N-{2,5-diazatricyclo[8.4.0.0,2,6]tetradeca-1(14),3,5,10,12-pentaen-7-yl}propanamide]",88.2
4,"N#CC(=Cc1cc(F)ccc1F)C(=O)NC1CCCC1 [8-I12, 2-cyano-N-cyclopentyl-3-(2,5-difluorophenyl)prop-2-enamide]",16.8
5,"C=CC(=O)NCc1cc(C2CC2)nn1C [1-L10, N-[(3-cyclopropyl-1-methyl-1H-pyrazol-5-yl)methyl]prop-2-enamide]",92.5
6,"CCCN(CC1CC1)C(=O)CCl [5-H11, 2-chloro-N-(cyclopropylmethyl)-N-propylacetamide]",1.45
7,"O=C(CCl)Nc1nc2c(s1)CCCC2 [5-G15, 2-chloro-N-(4,5,6,7-tetrahydro-1,3-benzothiazol-2-yl)acetamide]",1.2
8,"O=C(CCl)NC1(c2nc(-c3ccccc3)c[nH]2)CCCC1 [7-J08, 2-chloro-N-[1-(4-phenyl-1H-imidazol-2-yl)cyclopentyl]acetamide hydrochloride]",0.673
9,"Cc1cc(C(=O)CCl)c(F)cc1F [10-O03, 2-chloro-1-(2,4-difluoro-5-methylphenyl)ethan-1-one]",2.01
10,"N#CC(=Cc1ccc2c(c1)OCO2)C(=O)NCc1ccccc1 [8-A09, 3-(1,3-dioxaindan-5-yl)-N-benzyl-2-cyanoprop-2-enamide]",85.6
11,"N#CC(=Cc1ccccc1OC(F)F)C(=O)Nc1nccs1 [9-K19, 2-cyano-3-[2-(difluoromethoxy)phenyl]-N-(1,3-thiazol-2-yl)prop-2-enamide]",119
12,"Cn1ccc(NC(=O)C(C#N)=Cc2ncccc2C(F)(F)F)n1 [8-F17, 2-cyano-N-(1-methyl-1H-pyrazol-3-yl)-3-[3-(trifluoromethyl)pyridin-2-yl]prop-2-enamide]",95.2
13,"CC(Cl)C(=O)N1CCN(C(=O)c2ccc3ccccc3c2)CC1 (centres unmarked) [7-E07, 2-chloro-1-[4-(naphthalene-2-carbonyl)piperazin-1-yl]propan-1-one]",96.2
14,"CC(Cl)C(=O)Nc1cccc(S(=O)(=O)N2CCCCC2)c1 (centres unmarked) [5-L12, 2-chloro-N-[3-(piperidine-1-sulfonyl)phenyl]propanamide]",98.7
15,"CC(NC(=O)C(C#N)=Cc1ccco1)c1cccnc1 (centres unmarked) [9-K03, 2-cyano-3-(furan-2-yl)-N-[1-(pyridin-3-yl)ethyl]prop-2-enamide]",129
16,"COc1ccc(C=C(C#N)C(=O)Nc2ccc([N+](=O)[O-])cc2)cc1 [8-C05, 2-cyano-3-(4-methoxyphenyl)-N-(4-nitrophenyl)prop-2-enamide]",81.5
17,"CCOc1ccc(C=C(C#N)C(=O)Nc2ccncc2)cc1 [8-I22, 2-cyano-3-(4-ethoxyphenyl)-N-(pyridin-4-yl)prop-2-enamide]",99.3
18,"Cc1ccc(C=C(C#N)C(=O)Nc2ccccc2C)cc1 [8-G16, 2-cyano-N-(2-methylphenyl)-3-(4-methylphenyl)prop-2-enamide]",118
19,"CC1CCN(C(=O)CCl)c2cc(Cl)ccc2S1 (centres unmarked) [4-G16, 2-chloro-1-(7-chloro-2-methyl-2,3,4,5-tetrahydro-1,5-benzothiazepin-5-yl)ethan-1-one]",0.484
20,"C=CC(=O)N1CCC(C(=O)N[C@H]2CCC[C@H]2O)CC1 [2-K04, N-[(1S,2R)-2-hydroxycyclopentyl]-1-(prop-2-enoyl)piperidine-4-carboxamide]",84.2
21,"CC(Cl)C(=O)NCCCc1c[nH]c2ccc(F)cc12 (centres unmarked) [7-J09, 2-chloro-N-[3-(5-fluoro-1H-indol-3-yl)propyl]propanamide]",96
22,"COc1ccc(C=C(C#N)C(=O)Nc2cccc3c2C(=O)NC3=O)cc1 [8-F13, 2-cyano-N-(1,3-dioxo-2,3-dihydro-1H-isoindol-4-yl)-3-(4-methoxyphenyl)prop-2-enamide]",119
23,"CC(Cl)C(=O)NCc1cnn2ccccc12 (centres unmarked) [7-M13, 2-chloro-N-({pyrazolo[1,5-a]pyridin-3-yl}methyl)propanamide]",104
24,"N#CC(=Cc1ccco1)C(=O)NCCc1ccc(F)cc1F [9-B11, 2-cyano-N-[2-(2,4-difluorophenyl)ethyl]-3-(furan-2-yl)prop-2-enamide]",122
25,"N#CC(=Cc1ccc(OC(F)F)c(Cl)c1)C(N)=O [9-L12, 3-[3-chloro-4-(difluoromethoxy)phenyl]-2-cyanoprop-2-enamide]",106
26,"CC(C)N(C)S(=O)(=O)c1ccc(NC(=O)CCl)cc1 [4-K13, 2-chloro-N-{4-[methyl(propan-2-yl)sulfamoyl]phenyl}acetamide]",1.64
27,"C=CC(=O)N(C1CCCC1)C(C)c1nnc2ccccn12 (centres unmarked) [2-B07, N-cyclopentyl-N-(1-{[1,2,4]triazolo[4,3-a]pyridin-3-yl}ethyl)prop-2-enamide]",51.9

row,Compound,"viability at 48 h, 25 µM [%]"
1,"C=CC(=O)NCc1cnoc1C [3-C22, N-[(5-methyl-1,2-oxazol-4-yl)methyl]prop-2-enamide]",51.5
2,"N#CC(=Cc1ccc(O)c(O)c1)C(=O)Nc1ccccc1F [8-B05, 2-cyano-3-(3,4-dihydroxyphenyl)-N-(2-fluorophenyl)prop-2-enamide]",92.9
3,"CC(Cl)C(=O)Nc1cccc(Cl)c1Cl (centres unmarked) [4-L13, 2-chloro-N-(2,3-dichlorophenyl)propanamide]",81.1
4,"C=CC(=O)N(Cc1cnc(C2CC2)o1)C1CCCCC1C (centres unmarked) [1-D15, N-[(2-cyclopropyl-1,3-oxazol-5-yl)methyl]-N-(2-methylcyclohexyl)prop-2-enamide]",118
5,"COc1cc(NC(=O)C(C)Cl)cc(OC)c1 (centres unmarked) [4-I04, 2-chloro-N-(3,5-dimethoxyphenyl)propanamide]",81.7
6,"CC(Cl)C(=O)NCC(c1ccccc1)c1nnc[nH]1 (centres unmarked) [7-G15, 2-chloro-N-[2-phenyl-2-(4H-1,2,4-triazol-3-yl)ethyl]propanamide]",114
7,"Cc1ccccc1NC(=O)C(C#N)=Cc1c(Cl)nc2ccccn12 [9-I22, 3-{2-chloroimidazo[1,2-a]pyridin-3-yl}-2-cyano-N-(2-methylphenyl)prop-2-enamide]",134
8,"C=CC(=O)N1CCC(C(=O)Nc2ccc(N)c([N+](=O)[O-])c2)CC1 [3-E20, N-(4-amino-3-nitrophenyl)-1-(prop-2-enoyl)piperidine-4-carboxamide]",56.7
9,"COc1ccc(NC(=O)CCl)cc1S(=O)(=O)N1CCCCC1 [4-B08, 2-chloro-N-[4-methoxy-3-(piperidine-1-sulfonyl)phenyl]acetamide]",0.454
10,"Cc1ccc(NC(=O)C(C#N)=Cc2ccccc2OC(F)F)cc1 [9-D05, 2-cyano-3-[2-(difluoromethoxy)phenyl]-N-(4-methylphenyl)prop-2-enamide]",96.9
11,"O=C(CCl)Cc1c(Cl)cccc1Cl [10-K15, 1-chloro-3-(2,6-dichlorophenyl)propan-2-one]",23.3
12,"C=CC(=O)N(Cc1cc(F)cc(Cl)c1)C(C)C1CCOCC1 (centres unmarked) [1-F13, N-[(3-chloro-5-fluorophenyl)methyl]-N-[1-(oxan-4-yl)ethyl]prop-2-enamide]",110
13,"C=CC(=O)N1CC[C@H](Oc2ccc(F)cc2)C1 [2-A15, 1-[(3S)-3-(4-fluorophenoxy)pyrrolidin-1-yl]prop-2-en-1-one]",185
14,"C=CC(=O)N1CCC(n2ncc3ccccc32)CC1 [1-K22, 1-[4-(1H-indazol-1-yl)piperidin-1-yl]prop-2-en-1-one]",94.9
15,"CCOc1cc(C=C(C#N)C(=O)NC(C)C)cc(Cl)c1O [9-I13, 3-(3-chloro-5-ethoxy-4-hydroxyphenyl)-2-cyano-N-(propan-2-yl)prop-2-enamide]",87.3
16,"C=CC(=O)NCCc1nccs1 [3-M20, N-[2-(1,3-thiazol-2-yl)ethyl]prop-2-enamide]",89.6
17,"Cn1cc(C(=O)CCl)nn1 [10-M19, 2-chloro-1-(1-methyl-1H-1,2,3-triazol-4-yl)ethan-1-one]",68.1
18,"CC(Cl)C(=O)N(Cc1ccsc1)C1CC1 (centres unmarked) [7-G11, 2-chloro-N-cyclopropyl-N-[(thiophen-3-yl)methyl]propanamide]",86.9
19,"COC(=O)c1c(C)[nH]c(C(=O)C(C)Cl)c1C (centres unmarked) [10-D22, methyl 5-(2-chloropropanoyl)-2,4-dimethyl-1H-pyrrole-3-carboxylate]",83.7
20,"C=CC(=O)NCCC(=O)N1CCCC1c1cn(C)nc1C (centres unmarked) [3-E10, N-{3-[2-(1,3-dimethyl-1H-pyrazol-4-yl)pyrrolidin-1-yl]-3-oxopropyl}prop-2-enamide]",95.2
21,"C=CC(=O)NCc1ccnc(N2CCSCC2)c1 [1-I14, N-{[2-(thiomorpholin-4-yl)pyridin-4-yl]methyl}prop-2-enamide]",22.1
22,"C=CC(=O)NCc1c(Cl)c(C(F)(F)F)nn1C [2-J07, N-{[4-chloro-1-methyl-3-(trifluoromethyl)-1H-pyrazol-5-yl]methyl}prop-2-enamide]",72.8
23,"O=C(CCl)N1CCC(C2CCCN(C(=O)C(F)(F)F)C2)CC1 (centres unmarked) [5-E20, 1-[1'-(2-chloroacetyl)-[3,4'-bipiperidin]-1-yl]-2,2,2-trifluoroethan-1-one]",1.17
24,"CC(Cc1c[nH]c2cc(F)c(F)cc12)NC(=O)CCl (centres unmarked) [5-I07, 2-chloro-N-[1-(5,6-difluoro-1H-indol-3-yl)propan-2-yl]acetamide]",0.657
25,"O=C(CCl)c1ccoc1 [10-O09, 2-chloro-1-(furan-3-yl)ethan-1-one]",76.8
26,"N#CC(=Cc1c[nH]nc1-c1ccccc1F)C(=O)Nc1ccccc1F [8-H06, 2-cyano-N-(2-fluorophenyl)-3-[3-(2-fluorophenyl)-1H-pyrazol-4-yl]prop-2-enamide]",90.8
